Counter-ions that a name gives are not always drawn.
Biological target: SARS-CoV-2 Mac1 (Severe acute respiratory syndrome coronavirus 2, UniProt P0DTD1)
Test: biochemical
Conditions: for inhibition at 100 µM: read-out: %inhibition; for %inhibition: 100 µM, inhibitor

Question: For `COCC(=O)Nc1c(I)c(C(=O)NCC(O)CO)c(I)c(C(=O)N(C)CC(O)CO)c1I` (mixture of isomers) [Iopromide], which inhibition at 100 µM is on record?
Answer: The inhibition at 100 µM was 0%.

Question: For `CCC(C)n1ncn(-c2ccc(N3CCN(c4ccc(OC[C@H]5CO[C@](Cn6cncn6)(c6ccc(Cl)cc6Cl)O5)cc4)CC3)cc2)c1=O` (mixture of isomers) [Itraconazole], which inhibition at 100 µM is on record?
Answer: The inhibition at 100 µM was 1.14%.

Question: Which inhibition at 100 µM does the source give for `OC[C@H]1O[C@@H](O[C@@H]2[C@@H](CO)OC(O)(CO)[C@H]2O)[C@H](O)[C@@H](O)[C@H]1O` (mixture of isomers) [Lactulose] here?
Answer: The inhibition at 100 µM was 5.37%.

Question: For `CCCCC(C)(O)C/C=C/[C@H]1[C@H](O)CC(=O)[C@@H]1CCCCCCC(=O)OC` (mixture of isomers) [Misoprostol], which inhibition at 100 µM is on record?
Answer: The inhibition at 100 µM was 0%.

Question: `CC(C)(C)NCC(O)COc1cccc2c1C[C@H](O)[C@H](O)C2` (mixture of isomers) [Nadolol] was tested. Which inhibition at 100 µM did it give?
Answer: Its inhibition at 100 µM is 21.5%.

Question: Which inhibition at 100 µM does the source give for `NCC(O)c1ccc(O)cc1` (racemic) [(+,-)-Octopamine HCl] here?
Answer: The inhibition at 100 µM was 0%.

Question: Which inhibition at 100 µM does the source give for `CN1C[C@@H]2c3ccccc3Oc3ccc(Cl)cc3[C@H]2C1` (racemic) [Asenapine maleate] here?
Answer: The inhibition at 100 µM was 0%.

Question: `COC(=O)C1=C(C)NC(C)=C(C(=O)O[C@@H]2CCCN(Cc3ccccc3)C2)[C@@H]1c1cccc([N+](=O)[O-])c1` (racemic) [Benidipine HCl] was tested. Which inhibition at 100 µM did it give?
Answer: The inhibition at 100 µM was 4.77%.

Question: `C[N+](C)(C)CC(O)CC(=O)[O-]` (racemic) [DL-Carnitine HCl] was tested. Which inhibition at 100 µM did it give?
Answer: The inhibition at 100 µM was 0%.

Question: For `NC(=O)CCC(N)C(=O)O` (racemic) [DL-Glutamine], which inhibition at 100 µM is on record?
Answer: The inhibition at 100 µM was 0%.

Question: For `CC(C)(CO)C(O)C(=O)NCCCO` (racemic) [DL-Panthenol], which inhibition at 100 µM is on record?
Answer: Its inhibition at 100 µM is 0%.

Question: Which inhibition at 100 µM does the source give for `CC(C)n1c(/C=C/[C@@H](O)C[C@@H](O)CC(=O)O)c(-c2ccc(F)cc2)c2ccccc21` (racemic) [Fluvastatin Sodium] here?
Answer: Its inhibition at 100 µM is 30%.

Question: With `COc1ccc(C[C@@H](C)NC[C@H](O)c2ccc(O)c(NC=O)c2)cc1` (racemic) [Formoterol Hemifumarate] as the compound, how does the “%inhibition” value read?
Answer: The value was 0%.

Question: Which inhibition at 100 µM does the source give for `CC(=O)N1CCN(c2ccc(OC[C@@H]3CO[C@@](Cn4ccnc4)(c4ccc(Cl)cc4Cl)O3)cc2)CC1` (racemic) [Ketoconazole] here?
Answer: Its inhibition at 100 µM is 19.1%.

Question: With `CCN(CC)C(=O)[C@]1(c2ccccc2)C[C@@H]1CN` (racemic) [Milnacipran HCl] as the compound, how does the inhibition at 100 µM read?
Answer: The inhibition at 100 µM was 0%.

Question: How did the inhibition at 100 µM turn out when `CCOc1ccccc1O[C@H](c1ccccc1)[C@H]1CNCCO1` (racemic) [Reboxetine mesylate] was run?
Answer: Its inhibition at 100 µM is 0%.

Question: How did the inhibition at 100 µM turn out when `C[C@@H](NCCc1ccc(O)cc1)[C@@H](O)c1ccc(O)cc1` (racemic) [Ritodrine HCl] was run?
Answer: The inhibition at 100 µM was 33.2%.

Question: With `CC(C)N1CCN(c2ccc(OC[C@H]3CO[C@](Cn4cncn4)(c4ccc(Cl)cc4Cl)O3)cc2)CC1` (racemic) [Terconazole] as the compound, how does the inhibition at 100 µM read?
Answer: The inhibition at 100 µM was 4.88%.

Question: `O=C(O)CCCC[C@@H]1CCSS1` (racemic) [Thioctic acid] was tested. Which inhibition at 100 µM did it give?
Answer: Its inhibition at 100 µM is 22.2%.

Question: `Cc1ccc(S(=O)(=O)NC(=O)NN2CC3CCC[C@@H]3C2)cc1` (stereo in doubt) [Gliclazide] was tested. Which inhibition at 100 µM did it give?
Answer: Its inhibition at 100 µM is 9.52%.

Question: Which inhibition at 100 µM does the source give for `CC(=C(CCOC(=O)C(C)C)SSC(CCOC(=O)C(C)C)=C(C)N(C=O)Cc1cnc(C)nc1N)N(C=O)Cc1cnc(C)nc1N` (stereo in doubt) [Sulbutiamine] here?
Answer: The inhibition at 100 µM was 12.8%.

Question: `COc1ccc(C(=O)c2ccccc2O)c(O)c1` [2,2′-Dihydroxy-4-methoxybenzophenone] was tested. Which inhibition at 100 µM did it give?
Answer: Its inhibition at 100 µM is 8.7%.

Question: For `Nc1ccncc1` [4-Aminopyridine], which “%inhibition” value is on record?
Answer: Its value is 5.817%.

Question: How did the inhibition at 100 µM turn out when `CC1(C)OC(=O)NC1=O` [5,5-Dimethyloxazolidine-2,4-dione] was run?
Answer: The inhibition at 100 µM was 0.163%.

Question: Which inhibition at 100 µM does the source give for `NCC(=O)CCC(=O)O` [5-Aminolevulinic acid HCl] here?
Answer: Its inhibition at 100 µM is 7.12%.

Question: How did the inhibition at 100 µM turn out when `N[C@@H](Cc1c[nH]c2ccc(O)cc12)C(=O)O` [5-hydroxytryptophan (5-HTP)] was run?
Answer: The inhibition at 100 µM was 0%.

Question: `S=c1nc[nH]c2nc[nH]c12` [6-Mercaptopurine (6-MP) Monohydrate] was tested. Which inhibition at 100 µM did it give?
Answer: Its inhibition at 100 µM is 4.11%.

Question: With `Nc1c2ccccc2nc2ccccc12` [9-Aminoacridine] as the compound, how does the inhibition at 100 µM read?
Answer: Its inhibition at 100 µM is 0.915%.

Question: Which inhibition at 100 µM does the source give for `CC1(C)[C@@H]2CC[C@@]1(C)C(=O)C2` [(+)-Camphor] here?
Answer: Its inhibition at 100 µM is 0%.

Question: `C/C=C1\[C@H]2C=C(C)C[C@]1(N)c1ccc(=O)[nH]c1C2` [(-)-Huperzine A (HupA)] was tested. Which inhibition at 100 µM did it give?
Answer: Its inhibition at 100 µM is 0%.

Question: How did the inhibition at 100 µM turn out when `CC(C)[C@@H]1CC[C@@H](C)C[C@H]1O` [(-)-Menthol] was run?
Answer: Its inhibition at 100 µM is 0%.

Question: How did the inhibition at 100 µM turn out when `CC(C)NC[C@@H](O)COc1ccc(CC(N)=O)cc1` [(R)-(+)-Atenolol HCl] was run?
Answer: The inhibition at 100 µM was 9.19%.

Question: How did the inhibition at 100 µM turn out when `NC[C@H](CC(=O)O)c1ccc(Cl)cc1` [(R)-baclofen] was run?
Answer: Its inhibition at 100 µM is 0%.

Question: Which inhibition at 100 µM does the source give for `C[C@H](Oc1cc(-c2cnn(C3CCNCC3)c2)cnc1N)c1c(Cl)ccc(F)c1Cl` [(S)-crizotinib] here?
Answer: Its inhibition at 100 µM is 4.9%.

Question: With `NC(=O)c1ncn([C@@H]2O[C@H](CO)[C@@H](O)[C@H]2O)c1N` [AICAR (Acadesine)] as the compound, how does the inhibition at 100 µM read?
Answer: Its inhibition at 100 µM is 14.6%.

Question: Which inhibition at 100 µM does the source give for `Nc1nc(NC2CC2)c2ncn([C@H]3C=C[C@@H](CO)C3)c2n1` [Abacavir sulfate] here?
Answer: Its inhibition at 100 µM is 0%.

Question: Which inhibition at 100 µM does the source give for `CCN1CCN(Cc2ccc(Nc3ncc(F)c(-c4cc(F)c5nc(C)n(C(C)C)c5c4)n3)nc2)CC1` [Abemaciclib] here?
Answer: The inhibition at 100 µM was 4.16%.

Question: With `CC#CC(=O)N1CCC[C@H]1c1nc(-c2ccc(C(=O)Nc3ccccn3)cc2)c2c(N)nccn12` [Acalabrutinib (ACP-196)] as the compound, how does the inhibition at 100 µM read?
Answer: Its inhibition at 100 µM is 9.75%.

Question: For `CC(=O)NCCCS(=O)(=O)O` [Acamprosate Calcium], which inhibition at 100 µM is on record?
Answer: Its inhibition at 100 µM is 0%.

Question: `C[C@H]1O[C@H](O[C@H]2[C@H](O)[C@@H](O)[C@@H](O[C@H]3[C@H](O)[C@@H](O)C(O)O[C@@H]3CO)O[C@@H]2CO)[C@H](O)[C@@H](O)[C@@H]1N[C@H]1C=C(CO)[C@@H](O)[C@H](O)[C@H]1O` (stereo partly drawn) [Acarbose] was tested. Which inhibition at 100 µM did it give?
Answer: Its inhibition at 100 µM is 16%.

Question: With `CCCC(=O)Nc1ccc(OCC(O)CNC(C)C)c(C(C)=O)c1` (stereo not drawn) [Acebutolol HCl] as the compound, how does the inhibition at 100 µM read?
Answer: The inhibition at 100 µM was 0%.

Question: `O=C(O)COC(=O)Cc1ccccc1Nc1c(Cl)cccc1Cl` [Aceclofenac] was tested. Which inhibition at 100 µM did it give?
Answer: Its inhibition at 100 µM is 0%.

Question: `CC(=O)N[C@@H](CCC(N)=O)C(=O)O` [Aceglutamide] was tested. Which inhibition at 100 µM did it give?
Answer: Its inhibition at 100 µM is 0%.

Question: `COc1ccc2c(c1)c(CC(=O)OCC(=O)O)c(C)n2C(=O)c1ccc(Cl)cc1` [Acemetacin] was tested. Which inhibition at 100 µM did it give?
Answer: Its inhibition at 100 µM is 8.64%.

Question: Which inhibition at 100 µM does the source give for `CC(=O)Nc1ccccc1` [Acetanilide] here?
Answer: The inhibition at 100 µM was 30.4%.

Question: Which inhibition at 100 µM does the source give for `CC(=O)c1ccc(S(=O)(=O)NC(=O)NC2CCCCC2)cc1` [Acetohexamide] here?
Answer: Its inhibition at 100 µM is 17.8%.

Question: How did the inhibition at 100 µM turn out when `CC(=O)NO` [Acetohydroxamic acid] was run?
Answer: Its inhibition at 100 µM is 0%.

Question: Which inhibition at 100 µM does the source give for `CC(=O)OCC[N+](C)(C)C` [Acetylcholine iodide] here?
Answer: The inhibition at 100 µM was 0%.

Question: How did the inhibition at 100 µM turn out when `CC(=O)N[C@@H](CS)C(=O)O` [Acetylcysteine] was run?
Answer: Its inhibition at 100 µM is 0%.

Question: How did the inhibition at 100 µM turn out when `CC(=O)NC(CC(C)C)C(=O)O` (stereo not drawn) [Acetylleucine] was run?
Answer: The inhibition at 100 µM was 1.78%.

Question: For `Nc1nc2c(ncn2COCCO)c(=O)[nH]1` [Aciclovir], which inhibition at 100 µM is on record?
Answer: The inhibition at 100 µM was 19.8%.

Question: Which inhibition at 100 µM does the source give for `Cc1cnc(C(=O)O)c[n+]1[O-]` [Acipimox] here?
Answer: Its inhibition at 100 µM is 14%.

Question: How did the inhibition at 100 µM turn out when `COc1cc(C)c(/C=C/C(C)=C/C=C/C(C)=C/C(=O)O)c(C)c1C` [Acitretin] was run?
Answer: The inhibition at 100 µM was 7.72%.

Question: Which inhibition at 100 µM does the source give for `O=C(O[C@H]1C[N+]2(CCCOc3ccccc3)CCC1CC2)C(O)(c1cccs1)c1cccs1` [Aclidinium Bromide] here?
Answer: The inhibition at 100 µM was 0%.

Question: With `COc1cc(O)c(C(=O)Nc2nc(C(=O)NCCN(C(C)C)C(C)C)cs2)cc1OC` [Acotiamide hydrochloride] as the compound, how does the “%inhibition” value read?
Answer: Its value is 0%.

Question: With `COc1cc(O)c(C(=O)Nc2nc(C(=O)NCCN(C(C)C)C(C)C)cs2)cc1OC` [Acotiamide] as the compound, how does the “%inhibition” value read?
Answer: The value was 14.33%.

Question: `CC(=O)Nc1ccc(CC(=O)O)cc1` [Actarit] was tested. Which inhibition at 100 µM did it give?
Answer: The inhibition at 100 µM was 2.1%.
